Source: ChEMBL document CHEMBL3046832, “Synthesis of some sulfonamides, disubstituted sulfonylureas or thioureas and some structurally related variants. A class of promising antitumor agents” (2007)

Legend:
Assay type in all cases: functional
M14 = test: Cytotoxicity against Homo sapiens (human) M14 cells after 48 hr by SRB assay; details: M14, 48 h
LOX IMVI = test: Cytotoxicity against Homo sapiens (human) LOXIMVI cells after 48 hr by SRB assay
U-251 = test: Cytotoxicity against Homo sapiens (human) U251 cells after 48 hr by SRB assay; details: U-251, 48 h
SNB-75 = test: Cytotoxicity against Homo sapiens (human) SNB75 cells after 48 hr by SRB assay; details: SNB-75, 48 h
Hs-578T = test: Cytotoxicity against Homo sapiens (human) Hs578T cells after 48 hr by SRB assay
DU-145 = test: Cytotoxicity against Homo sapiens (human) DU145 cells after 48 hr by SRB assay; details: DU-145, 48 h
UO-31 = test: Cytotoxicity against Homo sapiens (human) UO31 cells after 48 hr by SRB assay; details: UO-31, 48 h
RXF 393 = test: Cytotoxicity against Homo sapiens (human) RXF393 cells after 48 hr by SRB assay; details: RXF 393, 48 h
CAKI-1 = test: Cytotoxicity against Homo sapiens (human) Caki1 cells after 48 hr by SRB assay; details: CAKI-1, 48 h
ACHN = test: Cytotoxicity against Homo sapiens (human) ACHN cells after 48 hr by SRB assay
786-0 = test: Cytotoxicity against Homo sapiens (human) 786-0 cells after 48 hr by SRB assay; details: 786-0, 48 h
[1] = Cytotoxicity against Homo sapiens (human) NCI-ADR-RES cells after 48 hr by SRB assay
SK-OV-3 = test: Cytotoxicity against Homo sapiens (human) SKOV3 cells after 48 hr by SRB assay; details: SK-OV-3, 48 h
IGROV-1 = test: Cytotoxicity against Homo sapiens (human) IGROV1 cells after 48 hr by SRB assay; details: IGROV-1, 48 h
OVCAR-3 = test: Cytotoxicity against Homo sapiens (human) OVCAR3 cells after 48 hr by SRB assay; details: OVCAR-3, 48 h
UACC-62 = test: Cytotoxicity against Homo sapiens (human) UACC62 cells after 48 hr by SRB assay; details: UACC-62, 48 h
SK-MEL-5 = test: Cytotoxicity against Homo sapiens (human) SK-MEL-5 cells after 48 hr by SRB assay; details: SK-MEL-5, 48 h
SK-MEL-28 = test: Cytotoxicity against Homo sapiens (human) SK-MEL-28 cells after 48 hr by SRB assay; details: SK-MEL-28, 48 h
[2] = Cytotoxicity against Homo sapiens (human) breast cancer cells after 48 hr by SRB assay; details: Cancer cell lines
[3] = Cytotoxicity against Homo sapiens (human) prostate cancer cells after 48 hr by SRB assay; details: Cancer cell lines
[4] = Cytotoxicity against Homo sapiens (human) renal cancer cells after 48 hr by SRB assay; details: Cancer cell lines
[5] = Cytotoxicity against Homo sapiens (human) ovarian cancer cells after 48 hr by SRB assay; details: Cancer cell lines
[6] = Cytotoxicity against Homo sapiens (human) CNS cancer cells after 48 hr by SRB assay; details: Cancer cell lines
[7] = Cytotoxicity against Homo sapiens (human) colon cancer cells after 48 hr by SRB assay; details: Cancer cell lines
[8] = Cytotoxicity against Homo sapiens (human) non-small cell lung cancer cells after 48 hr by SRB assay; details: Cancer cell lines
NCI-H460 [9] = test: Cytotoxicity against Homo sapiens (human) NCI-H460 cells assessed as cellular growth after 48 hr by Alamar blue assay; design: concentration or dose not given beside the values
[10] = Cytotoxicity against Homo sapiens (human) leukemia cells after 48 hr by SRB assay; details: Leukemia cell
SF-268 [11] = test: Cytotoxicity against Homo sapiens (human) SF268 cells assessed as cellular growth after 48 hr by Alamar blue assay; design: concentration or dose not given beside the values
BT-549 = test: Cytotoxicity against Homo sapiens (human) BT549 cells after 48 hr by SRB assay; details: BT-549, 48 h
T47D = test: Cytotoxicity against Homo sapiens (human) T47D cells after 48 hr by SRB assay
SNB-19 = test: Cytotoxicity against Homo sapiens (human) SNB19 cells after 48 hr by SRB assay; details: SNB-19, 48 h
SW-620 = test: Cytotoxicity against Homo sapiens (human) SW620 cells after 48 hr by SRB assay; details: SW-620, 48 h
SF-268 [12] = test: Cytotoxicity against Homo sapiens (human) SF268 cells after 48 hr by SRB assay; details: SF-268, 48 h
KM12 = test: Cytotoxicity against Homo sapiens (human) KM12 cells after 48 hr by SRB assay; details: KM12, 48 h
HCT-15 = test: Cytotoxicity against Homo sapiens (human) HCT15 cells after 48 hr by SRB assay; details: HCT-15, 48 h
HT-29 = test: Cytotoxicity against Homo sapiens (human) HT-29 cells after 48 hr by SRB assay; details: HT-29, 48 h
HCC 2998 = test: Cytotoxicity against Homo sapiens (human) HCC2998 cells after 48 hr by SRB assay; details: HCC 2998, 48 h
NCI-H522 = test: Cytotoxicity against Homo sapiens (human) NCI-H522 cells after 48 hr by SRB assay; details: NCI-H522, 48 h
NCI-H23 = test: Cytotoxicity against Homo sapiens (human) NCI-H23 cells after 48 hr by SRB assay; details: NCI-H23, 48 h
[13] = Cytotoxicity against Homo sapiens (human) NCI-H322 cells after 48 hr by SRB assay; details: NCI-H322, 48 h
NCI-H460 [14] = test: Cytotoxicity against Homo sapiens (human) NCI-H460 cells after 48 hr by SRB assay; details: NCI-H460, 48 h
HOP-92 = test: Cytotoxicity against Homo sapiens (human) HOP92 cells after 48 hr by SRB assay; details: HOP-92, 48 h
EKVX = test: Cytotoxicity against Homo sapiens (human) EKVX cells after 48 hr by SRB assay
RPMI-8226 = test: Cytotoxicity against Homo sapiens (human) RPMI8226 cells after 48 hr by SRB assay; details: RPMI-8226, 48 h
A549 = test: Cytotoxicity against Homo sapiens (human) A549 cells after 48 hr by SRB assay; details: A549, 48 h
MOLT-4 = test: Cytotoxicity against Homo sapiens (human) MOLT4 cells after 48 hr by SRB assay; details: MOLT-4, 48 h
CCRF-CEM = test: Cytotoxicity against Homo sapiens (human) CCRF-CEM cells after 48 hr by SRB assay

O=C(c1ccccc1)n1c(-c2ccccc2)cs/c1=N\S(=O)(=O)c1ccc(N2N=C3c4ccccc4CC3C2c2cccs2)cc1 (stereo not given)
GI50 (M14): 33 µM | GI50 (LOX IMVI): 30.7 µM | GI50 (U-251): 32 µM | GI50 (SNB-75): > 100 µM | GI50 (Hs-578T): 17 µM | GI50 (DU-145): 47 µM | GI50 (UO-31): 98.1 µM | GI50 (RXF 393): 37 µM | GI50 (CAKI-1): 38 µM | GI50 (ACHN): 43.8 µM | GI50 (786-0): 21.8 µM | GI50 [1]: > 100 µM | GI50 (SK-OV-3): > 100 µM | GI50 (IGROV-1): > 100 µM | GI50 (OVCAR-3): 55.2 µM | GI50 (UACC-62): 27.3 µM | GI50 (SK-MEL-5): 24.4 µM | GI50 (SK-MEL-28): > 100 µM | GI50 [2]: 65.3 µM | TGI [2]: > 100 µM | GI50 [3]: 43.1 µM | TGI [3]: > 100 µM | GI50 [4]: 44.8 µM | TGI [4]: 95.3 µM | GI50 [5]: 72 µM | TGI [5]: > 100 µM | GI50 [6]: 64.5 µM | TGI [6]: > 100 µM | GI50 [7]: 53.3 µM | TGI [7]: 90.4 µM | GI50 [8]: 43.7 µM | TGI [8]: 83.9 µM | Activity (NCI-H460 [9]): <=32% | GI50 [10]: 32.9 µM | TGI [10]: 80.3 µM | Activity (SF-268 [11]): <=32% | GI50 (BT-549): 69.7 µM | GI50 (T47D): > 100 µM | GI50 (SNB-19): 59.2 µM | GI50 (SW-620): 58.8 µM | GI50 (SF-268 [12]): > 100 µM | GI50 (KM12): 38.3 µM | GI50 (HCT-15): 61.4 µM | GI50 (HT-29): 73.3 µM | GI50 (HCC 2998): 14 µM | GI50 (NCI-H522): 23.7 µM | GI50 (NCI-H23): 13.1 µM | GI50 [13]: 22.3 µM | GI50 (NCI-H460 [14]): > 100 µM | GI50 (HOP-92): > 100 µM | GI50 (EKVX): 40.7 µM | GI50 (RPMI-8226): 32.3 µM | GI50 (A549): 39.5 µM | GI50 (MOLT-4): 30.5 µM | GI50 (CCRF-CEM): 41.3 µM

O=C1CCS/C(=N\S(=O)(=O)c2ccc(N3N=C4c5ccccc5CC4C3c3cccs3)cc2)N1C(=O)c1ccccc1 (stereo not given)
GI50 (M14): 10.8 µM | GI50 (LOX IMVI): 7.61 µM | GI50 (U-251): 4.5 µM | GI50 (SNB-75): > 100 µM | GI50 (Hs-578T): 2.85 µM | GI50 (DU-145): 23.2 µM | GI50 (UO-31): 30.7 µM | GI50 (RXF 393): 6.31 µM | GI50 (CAKI-1): 26.8 µM | GI50 (ACHN): 5.18 µM | GI50 (786-0): 14.1 µM | GI50 [1]: 32.9 µM | GI50 (SK-OV-3): 52.8 µM | GI50 (IGROV-1): 14.5 µM | GI50 (OVCAR-3): 27.4 µM | GI50 (UACC-62): 6.37 µM | GI50 (SK-MEL-5): 2.56 µM | GI50 (SK-MEL-28): 50.2 µM | GI50 [2]: 25.4 µM | TGI [2]: 73.5 µM | GI50 [3]: 26.2 µM | TGI [3]: > 100 µM | GI50 [4]: 17.7 µM | TGI [4]: 38.1 µM | GI50 [5]: 36.9 µM | TGI [5]: 42.1 µM | GI50 [6]: 36.7 µM | TGI [6]: 68.2 µM | GI50 [7]: 27.4 µM | TGI [7]: 52.6 µM | GI50 [8]: 21.7 µM | TGI [8]: 71.4 µM | Activity (NCI-H460 [9]): <=32% | GI50 [10]: 37.6 µM | TGI [10]: 80.1 µM | Activity (SF-268 [11]): <=32% | GI50 (BT-549): 4.77 µM | GI50 (T47D): > 100 µM | GI50 (SNB-19): 45.7 µM | GI50 (SW-620): 13.1 µM | GI50 (SF-268 [12]): 13.7 µM | GI50 (KM12): 29.4 µM | GI50 (HCT-15): 15.1 µM | GI50 (HT-29): 39.6 µM | GI50 (HCC 2998): 18.2 µM | GI50 (NCI-H522): 14.4 µM | GI50 (NCI-H23): 17.2 µM | GI50 [13]: 32.5 µM | GI50 (NCI-H460 [14]): 26.6 µM | GI50 (HOP-92): 25.4 µM | GI50 (EKVX): 22.1 µM | GI50 (RPMI-8226): 58.6 µM | GI50 (A549): 10.6 µM | GI50 (MOLT-4): 50.4 µM | GI50 (CCRF-CEM): 15 µM
